From patent publication US12594271B2, “Combination therapy for cancer” (Health Research, Inc., priority 2019, dated 2026)

Test system: MDSCs
Assay: MDSC suppression assay: inhibition of T cell proliferation by in vitro generated MDSCs
Type: cell-based, mouse
Conditions: ATRA 10 μM at start of culture, side-by-side with BRQ 1 μM
Experimental: FIG. 2. […] (A) MDSCs were produced in vitro from mouse bone marrow cells using GM-CSF and G-CSF±BRQ (1 μM) or ATRA (10 μM) at the start of the 4-day culture. Cells tested for their ability to inhibit T cell proliferation (1:1 ratio), as in FIG. 5. Fresh BM=Uncultured bone marrow cells. (B) Similar to A, except that uridine (200 μM) was added to rescue the effect of BRQ. (C) Expression of IRF8 (upper) or SLFN4 (lower) was analyzed by qRT-PCR in Lin^− BM cells cultured as in A for 2 days. Data normalized to the vehicle.
In Vitro Development of MDSCs. Unfractionated mouse bone marrow cells were cultured in dishes with recombinant mouse G-CSF and recombinant mouse GM-CSF (40 ng/ml of each cytokine) for 96 hours to produce MDSCs, as described (Marigo et al. Immunity 32:790-802, 2010). After culture, cells were collected and analyzed by flow cytometry for the indicated cell surface markers. Uncultured or fresh bone marrow (BM) cells served as a negative control.
Cultured Cells Develop Potent Immunosuppressive Capacity. Using the methods described for FIG. 4, experiments were then performed to determine whether the cells generated from this BM culture system functionally behaved as MDSCs, based on their ability to inhibit T cell proliferation in vitro. To that end, fresh BM (i.e., no in vitro culture) or cultured BM cells (i.e., MDSCs at two different MDSC-to-T cell ratios of 1:1 or 1:2) were co-mixed in 96-well plates with CellTrace Violet (CTV)—stained syngeneic naïve splenocytes as a source of T cells and stimulated with or without soluble agonistic anti-CD3 monoclonal antibody (mAb) (1 μg/ml) for 72 hours. After co-culture, CTV dye dilution in the gated CD4^+ or CD8^+ T cell fractions within the splenocyte populations was analyzed by flow cytometry to determine the extent of proliferation based on dye dilution. In FIG. 5, top panels show CTV dye dilution, as determined by flow cytometry and depicted as a histogram; bottom panels indicate the percentage of proliferation, based on quantification of the histogram data. […]

Q: `CC1=C(/C=C/C(C)=C/C=C/C(C)=C/C(=O)O)C(C)(C)CCC1` [ATRA, all-trans retinoic acid] was tested. Which “ability of in vitro generated MDSCs to inhibit CD4+ or CD8+ T cell proliferation” value did it give?
A: Its value is “BRQ is more effective than ATRA”.
